Experimental data published in patent US10065928B2, “Quinolinone compound and use thereof” (Sunshine Lake Pharma Co., Ltd., priority 2014, dated 2018).

Test system: erythropoietin (EPO) production in Hep3B cells
Experiment: Activity in inducing erythropoietin (EPO) production in vitro, Hep3B cells, EPO ELISA
Type: cell-based
Conditions: Homo sapiens, 24 h, EPO in supernatant by ELISA
Description: The activities of compounds of the invention in inducing erythropoietin (EPO) production were assessed by using human live cancer cell strain Hep3B (ATCC: American type culture collection, Manassas, Va.). Hep3B cells seeded in a 96-well plate with a density of 2.5×10^4 cells/well were cultivated overnight in DMEM culture medium (Dulbecco's Modified Eagle's Medium) at 37° C. in the presence of 10% fetal bovine serum (FBS). The next day, the supernatant liquid of culture medium was abandoned by suction, and to the residue was added fresh DMEM (containing 0.5% DMSO, 0.5% FBS) containing compound of the invention with a series of concentrations (0.31160.00 μM) or containing solvent used for comparison. The cells were cultivated at 37° C. for 24 h. The supernatant liquid was collected and the EPO concentration of the supernatant was quantified by using human EPO ELISA kit (Abcam). The activity of each compound in inducing erythropoietin (EPO) production was represented by half maximal effective concentration (EC50).

SMILES | EC50
Cn1c(=O)c(C(=O)NCC(=O)O)c(O)c2cc(Oc3ccccc3)ccc21 [Example 5, 2-(4-hydroxy-1-methyl-2-oxo-6-phenoxy-1,2-dihydroquinoline-3-carboxamido)acetic acid] | 4 µM
Cn1c(=O)c(C(=O)NCC(=O)O)c(O)c2cc(S(=O)(=O)n3ccc4ccccc43)ccc21 [Example 7, 2-(6-((1H-indol-1-yl)sulfonyl)-4-hydroxy-1-methyl-2-oxo-1,2-dihydroquinoline-3-carboxamido)acetic acid] | 6.83 µM
Cn1c(=O)c(C(=O)NCC(=O)O)c(O)c2ccc(Oc3ccc4ccccc4c3)cc21 [Example 8, 2-(4-hydroxy-1-methyl-7-(naphthalen-2-yloxy)-2-oxo-1,2-dihydroquinoline-3-carboxamido)acetic acid] | 1.63 µM
Cn1c(=O)c(C(=O)NCC(=O)O)c(O)c2cc(Oc3ccc4ccccc4c3)ccc21 [Example 9, 2-(4-hydroxy-1-methyl-6-(naphthalen-2-yloxy)-2-oxo-1,2-dihydroquinoline-3-carboxamido)acetic acid] | 2.52 µM
CN(C(=O)c1ccc2c(c1)c(O)c(C(=O)NCC(=O)O)c(=O)n2C)C(c1ccccc1)c1ccccc1 [Example 11, 2-(6-(benzhydryl(methyl)carbamoyl)-4-hydroxy-1-methyl-2-oxo-1,2-dihydroquinoline-3-carboxamido)acetic acid] | 10.2 µM
Cn1c(=O)c(C(=O)NCC(=O)O)c(O)c2ccc(Oc3cccc(F)c3F)cc21 [Example 14, 2-(7-(2,3-difluorophenoxy)-4-hydroxy-1-methyl-2-oxo-1,2-dihydroquinoline-3-carboxamido)acetic acid] | 10.2 µM
Cn1c(=O)c(C(=O)NCC(=O)O)c(O)c2ccc(Oc3c(F)cccc3F)cc21 [Example 16, 2-(7-(2,6-difluorophenoxy)-4-hydroxy-1-methyl-2-oxo-1,2-dihydroquinoline-3-carboxamido)acetic acid] | 8.83 µM
Cn1c(=O)c(C(=O)NCC(=O)O)c(O)c2ccc(Oc3cc(F)cc(F)c3)cc21 [Example 18, 2-(7-(3,5-difluorophenoxy)-4-hydroxy-1-methyl-2-oxo-1,2-dihydroquinoline-3-carboxamido)acetic acid] | 6.28 µM
Cn1c(=O)c(C(=O)NCC(=O)O)c(O)c2ccc(Oc3cccc(Cl)c3F)cc21 [Example 20, 2-(7-(3-chloro-2-fluorophenoxy)-4-hydroxy-1-methyl-2-oxo-1,2-dihydroquinoline-3-carboxamido)acetic acid] | 3.75 µM
Cn1c(=O)c(C(=O)NCC(=O)O)c(O)c2ccc(Oc3cccc(F)c3Cl)cc21 [Example 24, 2-(7-(2-chloro-3-fluorophenoxy)-4-hydroxy-1-methyl-2-oxo-1,2-dihydroquinoline-3-carboxamido)acetic acid] | 9.53 µM
Cn1c(=O)c(C(=O)NCC(=O)O)c(O)c2ccc(Oc3cc(F)cc(Cl)c3)cc21 [Example 26, 2-(7-(3-chloro-5-fluorophenoxy)-4-hydroxy-1-methyl-2-oxo-1,2-dihydroquinoline-3-carboxamido)acetic acid] | 13.5 µM
Cn1c(=O)c(C(=O)NCC(=O)O)c(O)c2ccc(Oc3ccc(F)c(Cl)c3)cc21 [Example 29, 2-(7-(3-chloro-4-fluorophenoxy)-4-hydroxy-1-methyl-2-oxo-1,2-dihydroquinoline-3-carboxamido)acetic acid] | 10.2 µM
Cn1c(=O)c(C(=O)NCC(=O)O)c(O)c2ccc(Oc3c(Cl)cccc3Cl)cc21 [Example 32, 2-(7-(2,6-dichlorophenoxy)-4-hydroxy-1-methyl-2-oxo-1,2-dihydroquinoline-3-carboxamido)acetic acid] | 3.63 µM
Cn1c(=O)c(C(=O)NCC(=O)O)c(O)c2ccc(Oc3cc(Cl)ccc3Cl)cc21 [Example 35, 2-(7-(2,5-dichlorophenoxy)-4-hydroxy-1-methyl-2-oxo-1,2-dihydroquinoline-3-carboxamido)acetic acid] | 2.25 µM
COc1ccc(Oc2ccc3c(O)c(C(=O)NCC(=O)O)c(=O)n(C)c3c2)cc1 [Example 36, 2-(4-hydroxy-7-(4-methoxyphenoxy)-1-methyl-2-oxo-1,2-dihydroquinoline-3-carboxamido)acetic acid] | 2.95 µM

The remaining compounds from weak to strong by EC50, led by results:

EC50 | SMILES
20.2 µM | Cn1c(=O)c(C(=O)NCC(=O)O)c(O)c2ccc(Oc3cc(Cl)cc(Cl)c3)cc21 [Example 34, 2-(7-(3,5-dichlorophenoxy)-4-hydroxy-1-methyl-2-oxo-1,2-dihydroquinoline-3-carboxamido)acetic acid]
10.2 µM | Cn1c(=O)c(C(=O)NCC(=O)O)c(O)c2ccc(Oc3ccc(Cl)c(F)c3)cc21 [Example 25, 2-(7-(4-chloro-3-fluorophenoxy)-4-hydroxy-1-methyl-2-oxo-1,2-dihydroquinoline-3-carboxamido)acetic acid]
9.23 µM | Cn1c(=O)c(C(=O)NCC(=O)O)c(O)c2ccc(Oc3c(F)cccc3Cl)cc21 [Example 23, 2-(7-(2-chloro-6-fluorophenoxy)-4-hydroxy-1-methyl-2-oxo-1,2-dihydroquinoline-3-carboxamido)acetic acid]
6.92 µM | Cn1c(=O)c(C(=O)NCC(=O)O)c(O)c2ccc(Oc3ccc(F)cc3F)cc21 [Example 15, 2-(7-(2,4-difluorophenoxy)-4-hydroxy-1-methyl-2-oxo-1,2-dihydroquinoline-3-carboxamido)acetic acid]
6.85 µM | Cn1c(=O)c(C(=O)NCC(=O)O)c(O)c2ccc(Oc3cc(F)ccc3Cl)cc21 [Example 27, 2-(7-(2-chloro-5-fluorophenoxy)-4-hydroxy-1-methyl-2-oxo-1,2-dihydroquinoline-3-carboxamido)acetic acid]
5.75 µM | Cn1c(=O)c(C(=O)NCC(=O)O)c(O)c2ccc(Oc3ccc(Cl)cc3F)cc21 [Example 21, 2-(7-(4-chloro-2-fluorophenoxy)-4-hydroxy-1-methyl-2-oxo-1,2-dihydroquinoline-3-carboxamido)acetic acid]
4.24 µM | Cn1c(=O)c(C(=O)NCC(=O)O)c(O)c2ccc(Oc3cccc(Cl)c3)cc21 [Example 12, 2-(7-(3-chlorophenoxy)-4-hydroxy-1-methyl-2-oxo-1,2-dihydroquinoline-3-carboxamido)acetic acid]
4.15 µM | Cn1c(=O)c(C(=O)NCC(=O)O)c(O)c2ccc(Oc3ccc(Cl)cc3Cl)cc21 [Example 31, 2-(7-(2,4-dichlorophenoxy)-4-hydroxy-1-methyl-2-oxo-1,2-dihydroquinoline-3-carboxamido)acetic acid]
3.16 µM | Cn1c(=O)c(C(=O)NCC(=O)O)c(O)c2ccc(Oc3ccc(F)c(F)c3)cc21 [Example 17, 2-(7-(3,4-difluorophenoxy)-4-hydroxy-1-methyl-2-oxo-1,2-dihydroquinoline-3-carboxamido)acetic acid]
2.56 µM | Cn1c(=O)c(C(=O)NCC(=O)O)c(O)c2ccc(Oc3ccc(Cl)c(Cl)c3)cc21 [Example 33, 2-(7-(3,4-dichlorophenoxy)-4-hydroxy-1-methyl-2-oxo-1,2-dihydroquinoline-3-carboxamido)acetic acid]
1.97 µM | Cn1c(=O)c(C(=O)NCC(=O)O)c(O)c2ccc(Oc3cccc(Cl)c3Cl)cc21 [Example 30, 2-(7-(2,3-dichlorophenoxy)-4-hydroxy-1-methyl-2-oxo-1,2-dihydroquinoline-3-carboxamido)acetic acid]
